Measurements published in US20040071718A1, “Local nasal immunotherapy for allergen-induced airway inflammation” (priority 2002, published 2004).
Marks after values point to notes of the source that are not given here.

Key:
Format in all cases: in vivo
[1] = test system: Balb/c mice; experiment: Cytokine producing cells in peripheral blood (flow cytometry) after LNIT; conditions: for IL-5/IFN-γ (CD4) / IL-5/IFN-γ (CD8): peripheral blood
Description: (§1) Male Balb/c mice were obtained from the National Laboratory Breeding Research Center in Taiwan and were raised in a specific pathogen-free environment. The mice used were between six and eight weeks of age. Groups of six mice were caged separately according to their treatment.
(§2) Mice were immunized by way of an intraperitoneal (IP) injection of 1 μg/0.1 mL rDp2 emulsified in 4.0 mg/0.062mL aluminum hydroxide Al(OH)3 (Whitehall Lab Ltd. Punchbowl, NSW, Australia) on day 0 and day 7. Following immunization, local nasal immunotherapy (LNIT) was conducted daily from day 14 to day 35 with Dp2 28-40, Dp2 28-40A, FIP alone or FIP mixed with either Dp2 28-40 or Dp2 28-40A (FIP, 50 μg/mouse/day; Dp2 peptide, 1 μg/20 μL) in PBS with 10% glycerol. Normal saline (NS) and irrelevant allergen Bt were used as a negative control. […] On day 28, mice were lightly anesthetized with an IP injection of 60 mg/kg of sodium pentobarbital (Sigma Chemical Co., St Louis, Mo., U.S.A.) and inoculated intratracheally (IT) with 1 μg/50 μL of rDp 2 on day 28 and day 35. Two days subsequent to the second IT inoculation, the mice were sacrificed following the assessment of their pulmonary function (FIG. 1).
Two-color staining methods were used to analyze IFN-γ and IL-5 expression amongst CD4 cells. Leukocytes derived from peripheral blood (PBL) were stimulated with PMA (50 ng/mL), ionomycin (2 μM) and GolgiStop (Cytofix/Cytoperm Plus Pharmingen San Diego, Calif., U.S.A.) for five hours and then washed twice using PBS. The cells were stained with CD4-PerCP, CD8-FITC or IgG1-FITC (PharMingen) at room temperature (RT) for 30 minutes and then washed. Cells were fixed with cytofix/cytoperm at RT for 30 minutes and then stained with anti-cytokine antibody and IgG2a-PE (PharMingen) at RT for 30 minutes and subsequently washed. Both IgG1-FITC and IgG2a-PE were purchased from the same manufacturer as the anticytokine antibodies and the negative controls. Cells were resuspended in 0.5 mL PBS containing 0.1% w/v sodium azide. Mean fluorescence was measured by means of Becton Diskinson flow cytometry (Becton Diskinson, Calif., U.S.A.). A total of 2,000 cells was analyzed for each sample.

[2] = test system: Balb/c mice; experiment: IL-5 and IFN-γ levels in sera and BALF (ELISA) after LNIT; conditions: Example 2, mean ± SEM, n = 6
Description: as §1, §2
IFN-γ and IL-5 were measured using commercially-available ELISA kits, using a specific mouse monoclonal Ab that recognized different epitopes of the cytokine molecules. The lowest detector range was 10 pg/mL. Given that the BALF was considered to be at too diluted a concentration, IL-4 was not measured.

[3] = test system: Balb/c mice; experiment: Leukocyte subpopulations in BALF of rDp2-sensitized mice after local nasal immunotherapy (LNIT); conditions: BALF
Description: Male Balb/c mice were obtained from the National Laboratory Breeding Research Center in Taiwan and were raised in a specific pathogen-free environment. The mice used were between six and eight weeks of age. Groups of six mice were caged separately according to their treatment. Recombinant Dermatophoides pteronyssinus group 2 (rDp2) was prepared as previously described(Tsai J J, et al. Int Arch Allergy Immunol 2000;121:205-10). Dp2 28-40 and Dp2 28-40A were obtained from Dr. Jonathan Lamb (Respiratory Medicine Unit, Edinburgh University, Medical School, Edinburgh, UK) (Verhoef A, and Lamb J R. J Immunol 2000;164:6034-6040). FIP was obtained from Dr. Ko Jiunn-Liang (Institute of Toxicology, Chung Shan Medical University, Taichung, R O C) (J L Ko, et al. Eur. J. Biochem. 1995;228:244-249).
as §2
Subsequent to pulmonary function measurement having been completed, bronchoalveolar lavage (BAL) was performed using the following procedure. BAL fluids were collected with lmL sterile endotoxin-free saline washes of each lung via the trachea for each mouse. BAL cells were washed once with PBS by centrifugation at 200×g at 4° C. Subsequent to washing, the cells were resuspended in RPMI-1640 (Sigma Chemical Co.). The total leukocyte count in BAL fluids was determined using a hemocytometer. The BAL fluids were aspirated and stored at −70° C. until needed for assay purposes. Subsequent to total leukocyte counting, a cytospin preparation of 100 μL BAL fluids (2×10^5 cells/mL) was conducted, the cells being cytocentrifuged directly onto glass slides at 350 r.p.m. for five minutes using a Cytospin 3 cytocentrifuge (Shandon Scientific Limited, Astmoor, Runcorn, UK), and then stained with Liu stain (Tonyar Diagnostic Inc, Taipei & Hien, Taiwan). The differential counts were performed for a total of 200 leukocyte cells.

[4] = Example 1, percentage of positive stained cells in the PBMC of six mice
[5] = Example 2, percentage of total leukocytes in the peripheral blood of six mice
[6] = Example 1, LNIT day 14-35, rDp2 IT challenge, mean ± SEM of six animals
[7] = Example 2 (FIP study), mean ± SEN of six mice

**Q.** Which “CD4^+” value [1, 4] does the source give for C[C@@H]1C[C@H]2[C@@H]3CCC4=CC(=O)C=C[C@]4(C)[C@@]3(F)[C@@H](O)C[C@]2(C)[C@@]1(O)C(=O)CO [DEX, Dexamethasone, reference compound] here?
**A.** 45.6 percentage

**Q.** What about the “CD8^+” value [1, 4] of the same compound?
**A.** 7.0 percentage

**Q.** What about the “IFN-γ^+/CD4^+” value [1, 4] of the same compound?
**A.** 7.9 percentage

**Q.** What about the “IFN-γ^+/CD8^+” value [1, 4] of the same compound?
**A.** 7.9 percentage

**Q.** And the “IL-5^+/CD4^+” value [1, 4]?
**A.** 9.2 percentage

**Q.** What about the “IL-5^+/CD8^+” value [1, 4] of the same compound?
**A.** 8.2 percentage

**Q.** What about the “IL-5/IFN-γ (CD4)” value ([1]; Example 1, ratio of IL-5 to IFN-γ producing CD4 cells) of the same compound?
**A.** 1.2

**Q.** And the “IL-5/IFN-γ (CD8)” value ([1]; Example 1, ratio of IL-5 to IFN-γ producing CD8 cells)?
**A.** 1.0

**Q.** And the CD4 [1, 5]?
**A.** 51.2 percentage

**Q.** What about the CD8 [1, 5] of the same compound?
**A.** 7.9 percentage

**Q.** What about the “IFN-γ^+/CD4^+” value [1, 5] of the same compound?
**A.** 17.7 percentage

**Q.** What about the “IFN-γ^+/CD8^+” value [1, 5] of the same compound?
**A.** 14.1 percentage

**Q.** And the “IL-5^+/CD4^+” value [1, 5]?
**A.** 15.8 percentage

**Q.** What about the “IL-5^+/CD8^+” value [1, 5] of the same compound?
**A.** 14.1 percentage

**Q.** What about the “IL-5/IFN-γ (CD4)” value ([1]; Example 2, ratio, CD4 cells) of the same compound?
**A.** 0.9

**Q.** And the “IL-5/IFN-γ (CD8)” value ([1]; Example 2, ratio, CD8 cells)?
**A.** 1.0

**Q.** And the IFN-γ ([2]; BALF)?
**A.** 9.9 ± 0.6 pg/mL

**Q.** And the IL-5 ([2]; BALF)?
**A.** 19.2 ± 1.2 pg/mL

**Q.** What about the IFN-γ ([2]; Sera) of the same compound?
**A.** 46.2 ± 3.4 pg/mL

**Q.** What about the IL-5 ([2]; Sera) of the same compound?
**A.** 138.0 ± 16.6 pg/mL

**Q.** What about the Eosinophil [3, 6] of the same compound?
**A.** 3.2 ± 0.4* 10^4 cells/mL

**Q.** What about the Lymphocyte [3, 6] of the same compound?
**A.** 9.4 ± 1.5* 10^4 cells/mL

**Q.** And the Macrophage [3, 6]?
**A.** 29.2 ± 4.4* 10^4 cells/mL

**Q.** And the Neutrophil [3, 6]?
**A.** 6.6 ± 1.0* 10^4 cells/mL

**Q.** And the Total cell [3, 6]?
**A.** 46.4 ± 2.2* 10^4 cells/mL

**Q.** What about the Eosinophil [3, 7] of the same compound?
**A.** 3.8 ± 0.5 ×10^4/mL

**Q.** What about the Lymphocyte [3, 7] of the same compound?
**A.** 15.3 ± 0.6 ×10^4/mL

**Q.** And the Macrophage [3, 7]?
**A.** 28.3 ± 1.7 ×10^4/mL

**Q.** And the Neutrophil [3, 7]?
**A.** 8.0 ± 0.8 ×10^4/mL
